Test results as given in the supplement of paper PMC11061612.

Assays:
Assay in all cases: combination Emax (second highest fraction inhibited in the dose matrix, 72 h); higher = more inhibition; extreme values may be limits of the assay
[1] = test system: OV-90 (Ovarian Carcinoma)
Summary of the method: (§1)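 Cell lines grown in DMEM/F12 or RPMI with 10% FBS were plated in 1536-well plates and held 24 hours at 37°C, 5% CO2 before 72 hours of exposure to two-drug dose matrices, with DMSO typically at 0.2%. CellTiter-Glo 2.0 luminescence gave viability, which was converted to inhibition. Vehicle wells were set to 0 and blank wells to 1. Combination Emax is the second-highest inhibition in the matrix, and Bliss excess is the observed combination effect minus the expected EA + EB − EA·EB, where EA and EB are the single-agent effects.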

[2] = test system: CML-T1 (Chronic Myelogenous Leukemia)
Summary of the method: as §1

[3] = test system: SK-MM-2 (Plasma Cell Myeloma)
Summary of the method: as §1

[4] = test system: SW684 (Other Solid Carcinomas)
Summary of the method: as §1

[5] = test system: NCI-H1755 (Lung Adenocarcinoma)
Summary of the method: as §1

[6] = test system: NCI-H1155 (Non-Small Cell Lung Carcinoma)
Summary of the method: as §1

[7] = test system: NCI-H1623 (Lung Adenocarcinoma)
Summary of the method: as §1

[8] = test system: OCI-AML5 (Acute Myeloid Leukemia)
Summary of the method: as §1

ES-2 (Ovarian Carcinoma) = test system: ES-2 (Ovarian Carcinoma)
Summary of the method: as §1

[9] = test system: FLO-1 (Esophageal Adenocarcinoma)
Summary of the method: as §1

[10] = test system: COLO-684 (Endometrial Carcinoma)
Summary of the method: as §1

HuO-3N1 (Osteosarcoma) = test system: HuO-3N1 (Osteosarcoma)
Summary of the method: as §1

[11] = test system: HSC-3 (Oral Cavity Carcinoma)
Summary of the method: as §1

RT4 (Bladder Carcinoma) = test system: RT4 (Bladder Carcinoma)
Summary of the method: as §1

[12] = test system: NCI-H196 (Small Cell Lung Carcinoma)
Summary of the method: as §1

CHL-1 (Melanoma) = test system: CHL-1 (Melanoma)
Summary of the method: as §1

[13] = test system: AsPC-1 (Pancreatic Carcinoma)
Summary of the method: as §1

[14] = test system: PC-14 (Lung Adenocarcinoma)
Summary of the method: as §1

KYM-1 (Rhabdomyosarcoma) = test system: KYM-1 (Rhabdomyosarcoma)
Summary of the method: as §1

[15] = test system: OVTOKO (Ovarian Carcinoma)
Summary of the method: as §1

| SMILES | combination Emax [1] | combination Emax [2] | combination Emax [3] | combination Emax [4] | combination Emax [5] | combination Emax [6] | combination Emax [7] | combination Emax [8] | combination Emax (ES-2 (Ovarian Carcinoma)) | combination Emax [9] | combination Emax [10] | combination Emax (HuO-3N1 (Osteosarcoma)) | combination Emax [11] | combination Emax (RT4 (Bladder Carcinoma)) | combination Emax [12] | combination Emax (CHL-1 (Melanoma)) | combination Emax [13] | combination Emax [14] | combination Emax (KYM-1 (Rhabdomyosarcoma)) | combination Emax [15] |
| --- | --- | --- | --- | --- | --- | --- | --- | --- | --- | --- | --- | --- | --- | --- | --- | --- | --- | --- | --- | --- |
| Cc1cc2ncnn2cc1Nc1ncc2c(n1)n(C1CCOCC1)c(=O)n2C [AZD7648] + C=CCn1c(=O)c2cnc(Nc3ccc(N4CCN(C)CC4)cc3)nc2n1-c1cccc(C(C)(C)O)n1 [AZD1775] (first compound max 10 µM, partner max 1 µM) | 0.409 | 0.941 | 0.573 | 0.32 | 0.77 | 0.485 | 0.505 | 0.947 | 0.661 | 0.802 | 0.722 | 0.417 | 0.311 | 0.446 | 0.479 | 0.704 | 0.314 | 0.86 | 0.33 | 0.561 |
| Cc1cc2ncnn2cc1Nc1ncc2c(n1)n(C1CCOCC1)c(=O)n2C [AZD7648] + O=C(c1cc(Cc2n[nH]c(=O)c3ccccc23)ccc1F)N1CCN(C(=O)C2CC2)CC1 [Olaparib] (first compound max 10 µM, 7x7, partner max 10 µM) | 0.238 | 0.71 | 0.156 | 0.154 | 0.263 | 0.293 | 0.446 | 0.25 | 0.283 | 0.208 | 0.238 | 0.233 | 0.15 | 0.28 | 0.129 | 0.134 | 0.0586 | 0.241 | 0.274 | 0.186 |
| CC1(C)CCC(CN2CCN(c3ccc(C(=O)NS(=O)(=O)c4ccc(NCC5CCOCC5)c([N+](=O)[O-])c4)c(Oc4cnc5[nH]ccc5c4)c3)CC2)=C(c2ccc(Cl)cc2)C1 [Venetoclax] + C1CN(CCC1(C(=O)N[C@@H](CCO)C2=CC=C(C=C2)Cl)N)C3=NC=NC4=C3C=CN4 [Capivasertib] (first compound max 1 µM, 7x7, partner max 3 µM) | 0.366 | 0.935 | 1 | 0.392 | 0.648 | 0.289 | 0.314 | 0.958 | 0.14 | 0.192 | 0.625 | 0.242 | 0.391 | 0.0704 | 0.198 | 0.163 | 0.207 | 0.328 | 0.0721 | 0.462 |
| Cn1cnc2c(F)c(Nc3ccc(Br)cc3Cl)c(C(=O)NOCCO)cc21 [Selumetinib] + CCN(CCO)CCCOc1ccc2c(Nc3cc(CC(=O)Nc4cccc(F)c4)[nH]n3)ncnc2c1 [AZD2811] (first compound max 10 µM, 7x7, partner max 1 µM) | 0.606 | 0.765 | 0.161 | 0.277 | 0.541 | 0.674 | 0.331 | 1 | 0.488 | 0.475 | 0.14 | 0.181 | 0.512 | 0.516 | 0.0609 | 0.257 | 0.443 | 0.587 | 0.318 | 0.227 |
| CC(=O)c1c(C)c2cnc(Nc3ccc(N4CCNCC4)cn3)nc2n(C2CCCC2)c1=O [Palbociclib] + Cc1c2c(nn1C)CSCc1cc(n(C)n1)CSc1cc(c3ccccc3c1)OCCCc1c(C(=O)O)n(C)c3c-2c(Cl)ccc13 [AZD5991] (first compound max 10 µM, 7x7, partner max 1 µM) | 0.158 | 0.924 | 0.259 | 0.335 | 0.524 | 0.237 | 0.818 | 0.517 | 0.619 | 0.603 | 0.321 | 0.508 | 0.613 | 0.355 | 0.126 | 0.691 | 0.199 | 0.279 | 0.947 | 0.48 |
| C[C@@H](c1ccc2nccn2c1)n1nnc2ncc(-c3cnn(C)c3)nc21 [Savolitinib] + Cc1c2c(nn1C)CSCc1cc(n(C)n1)CSc1cc(c3ccccc3c1)OCCCc1c(C(=O)O)n(C)c3c-2c(Cl)ccc13 [AZD5991] (first compound max 1 µM, 7x7, partner max 1 µM) | 0.185 | 0.228 | 0.131 | 0.161 | 0.173 | 0.114 | 0.802 | 0.137 | 0.176 | 0.294 | 0.174 | 0.35 | 0.206 | 0.25 | 0.173 | 0.291 | 0.184 | 0.148 | 0.43 | 0.199 |
| CC1(C)CCC(CN2CCN(c3ccc(C(=O)NS(=O)(=O)c4ccc(NCC5CCOCC5)c([N+](=O)[O-])c4)c(Oc4cnc5[nH]ccc5c4)c3)CC2)=C(c2ccc(Cl)cc2)C1 [Venetoclax] + Cn1cnc2c(F)c(Nc3ccc(Br)cc3Cl)c(C(=O)NOCCO)cc21 [Selumetinib] (first compound max 1 µM, 7x7, partner max 3 µM) | 0.571 | 0.957 | 1 | 0.191 | 0.636 | 0.371 | 0.256 | 1 | 0.366 | 0.319 | 0.0813 | 0.146 | 0.365 | 0.304 | 0.077 | 0.0922 | 0.403 | 0.22 | 0.124 | 0.163 |
| CS(=O)(=O)CCNCc1ccc(-c2ccc3ncnc(Nc4ccc(OCc5cccc(F)c5)c(Cl)c4)c3c2)o1 [Lapatinib] + C[C@@H](Oc1cc(-c2cnn(C3CCNCC3)c2)cnc1N)c1c(Cl)ccc(F)c1Cl [Crizotinib] (first compound max 10 µM, 7x7, partner max 10 µM) | 0.578 | 0.965 | 0.43 | 0.523 | 0.957 | 0.61 | 0.987 | 0.988 | 0.921 | 0.881 | 0.78 | 0.876 | 1 | 0.916 | 0.19 | 0.757 | 0.345 | 1 | 0.971 | 0.902 |
| CN(CCO)CC[C@H](CSc1ccccc1)Nc1ccc(S(=O)(=O)NC(=O)c2ccc(N3CCC([C@@H](O)c4ccccc4-c4ccc(Cl)cc4)CC3)cc2)cc1S(=O)(=O)C(F)(F)F [AZD4320] + CN(C)CCCOc1ccc(-c2ccc3ncc4c(c3c2)n(C2CCOCC2)c(=O)n4C)cn1 [AZD0156] (first compound max 1 µM, 7x7, partner max 1 µM) | 0.5 | 0.987 | 1 | 0.19 | 0.229 | 0.717 | 0.191 | 1 | 0.15 | 0.386 | 0.148 | 0.164 | 0.145 | 0.266 | 0.171 | 0.113 | 0.602 | 0.17 | 0.14 | 0.25 |
| Cc1cc2ncnn2cc1Nc1ncc2c(n1)n(C1CCOCC1)c(=O)n2C [AZD7648] + C[C@@H]1COCCN1C2=NC(=NC(=C2)C3(CC3)[S@](=N)(=O)C)C4=C5C=CNC5=NC=C4 [AZD6738] (first compound max 10 µM, 7x7, partner max 10 µM) | 0.489 | 0.936 | 0.475 | 0.383 | 0.883 | 0.746 | 0.588 | 0.882 | 0.743 | 0.668 | 0.764 | 0.331 | 0.405 | 0.488 | 0.365 | 0.798 | 0.369 | 0.805 | 0.697 | 0.344 |
| COc1cccc(OCCCN)c1-c1cc(Nc2cnc(C#N)cn2)n[nH]1 [Prexasertib] + CCc1c2c(nc3ccc(O)cc13)-c1cc3c(c(=O)n1C2)COC(=O)[C@]3(O)CC [SN-38] (first compound max 1 µM, 7x7, partner max 0.3 µM) | 0.573 | 1 | 0.875 | 0.642 | 0.952 | 0.993 | 0.987 | 1 | 0.988 | 0.918 | 0.956 | 0.808 | 0.937 | 0.894 | 0.659 | 0.877 | 0.41 | 0.894 | 0.97 | 0.532 |
| NC1(C(=O)N[C@@H](CCO)c2ccc(Cl)cc2)CCN(c2ncnc3[nH]ccc23)CC1 [Capivasertib] + CC(=O)c1c(C)c2cnc(Nc3ccc(N4CCNCC4)cn3)nc2n(C2CCCC2)c1=O [Palbociclib] (first compound max 10 µM, 7x7, partner max 10 µM) | 0.305 | 0.939 | 0.409 | 0.54 | 0.659 | 0.566 | 0.506 | 0.479 | 0.72 | 0.551 | 0.632 | 0.432 | 0.78 | 0.362 | 0.258 | 0.191 | 0.396 | 0.582 | 0.85 | 0.572 |
